Where a name gives a salt, the structure may show the parent alone.
These molecules were tested against T1, human C3a receptor (C3aR) (Homo sapiens, UniProt Q16581) (assay: Inhibition of human [125I]-C3a binding to human C3a receptor (SPA, membranes of HEK293 cells expressing recombinant C3aR)). Conditions: 0.1 nM [125I]-C3a, 3 hours at room temperature; Table 1.
T1 construct: expressed in transfected cells
T1 sequence (Q16581 1-482): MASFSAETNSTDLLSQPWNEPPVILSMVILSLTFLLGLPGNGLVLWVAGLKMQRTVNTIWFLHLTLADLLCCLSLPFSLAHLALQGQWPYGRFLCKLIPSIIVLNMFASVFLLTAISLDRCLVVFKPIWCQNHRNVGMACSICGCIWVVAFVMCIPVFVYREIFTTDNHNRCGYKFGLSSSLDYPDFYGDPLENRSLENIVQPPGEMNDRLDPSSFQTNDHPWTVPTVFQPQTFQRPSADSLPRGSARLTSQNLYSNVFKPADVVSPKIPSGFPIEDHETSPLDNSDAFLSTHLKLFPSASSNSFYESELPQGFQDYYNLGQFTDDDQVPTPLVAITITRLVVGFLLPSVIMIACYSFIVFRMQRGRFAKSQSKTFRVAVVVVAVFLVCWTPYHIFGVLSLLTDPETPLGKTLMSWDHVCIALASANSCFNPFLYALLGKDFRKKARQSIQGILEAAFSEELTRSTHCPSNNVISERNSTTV
Protocol: Inhibition of human [^125I]-C3a binding to human C3a receptor
Binding of human [^125I]-C3a to human C3a receptor (C3aR) was done using cell membranes from HEK293 cells stably expressing recombinant C3aR, in a homogeneous scintillation proximity assay (SPA). The C3aR cell membranes were pre-coupled over-night at 4° C. to WGA-PVT SPA beads (Amersham) at a ratio of 10 μg cell membrane to 0.5 mg beads/assay. Assay was performed in 96-well microtiter Optiplates (Packard) by mixing coupled beads and 0.1 nM [^125I]-C3a (2200 Ci/mmol, Perkin Elmer Life Sciences), in a total volume of […] binding buffer (20 mM HEPES, pH 7.4, 125 mM NaCl, 5 mM KCl, 1 mM CaCl2, 1 mM MgCl2, 0.25% BSA, 0.2% CHAPS). Test compounds were diluted in DMSO and were tested for their inhibitory potential in the assay (final concentration≦1% DMSO). Incubation was done for 3 hours at room temperature followed by reading in a TopCount scintillation microplate reader. Non-specific binding was determined by adding 1 μM unlabeled C3a (Calbiochem) to the assay mixture. Calculation of the IC50 was done as above using a nonlinear least square fitting program, with Graphpad Prism.

| IC50 [nM] | Structure (SMILES) |
| --- | --- |
| 50 to 500 | N=C(N)NCCC[C@H](NC(=O)c1cccn(Cc2ccc(Cc3ccccc3)cc2)c1=O)C(=O)O [Compound 25, (2S)-2-({[1-(4-benzylbenzyl)-2-oxo-1,2-dihydropyridin-3-yl]carbonyl}amino)-5-carbamimidamidopentanoic acid•TFA] |
| < 50 | N=C(N)NCCC[C@H](NC(=O)c1cccn(Cc2ccccc2-c2cccc3ccccc23)c1=O)C(=O)O [Compound 26, (2S)-5-carbamimidamido-2-[({1-[2-(1-naphthyl)benzyl]-2-oxo-1,2-dihydropyridin-3-yl}carbonyl)amino]pentanoic acid•TFA] |
| < 50 | N=C(N)NCCC[C@H](NC(=O)c1cccn(Cc2ccccc2-c2ccc3ccccc3c2)c1=O)C(=O)O [Compound 27, (2S)-5-carbamimidamido-2-[({1-[2-(2-naphthyl)benzyl]-2-oxo-1,2-dihydropyridin-3-yl}carbonyl)amino]pentanoic acid•TFA] |
| < 50 | CC(C)c1ccccc1-c1ccccc1Cn1cccc(C(=O)N[C@@H](CCCNC(=N)N)C(=O)O)c1=O [Compound 28, (2S)-5-carbamimidamido-2-[({1-[(2′-isopropylbiphenyl-2-yl)methyl]-2-oxo-1,2-dihydropyridin-3-yl}carbonyl)amino]pentanoic acid•TFA] |
| < 50 | CC(C)c1cccc(-c2ccccc2Cn2cccc(C(=O)N[C@@H](CCCNC(=N)N)C(=O)O)c2=O)c1 [Compound 29, (2S)-5-carbamimidamido-2-[({1-[(3′-isopropylbiphenyl-2-yl)methyl]-2-oxo-1,2-dihydropyridin-3-yl}carbonyl)amino]pentanoic acid•TFA] |
| 50 to 500 | CC(C)c1ccc(-c2ccccc2Cn2cccc(C(=O)N[C@@H](CCCNC(=N)N)C(=O)O)c2=O)cc1 [Compound 30, (2S)-5-carbamimidamido-2-[({1-[(4′-isopropylbiphenyl-2-yl)methyl]-2-oxo-1,2-dihydropyridin-3-yl}carbonyl)amino]pentanoic acid•TFA] |
| < 50 | N=C(N)NCCC[C@H](NC(=O)c1cccn(Cc2ccccc2-c2ccc(F)cc2)c1=O)C(=O)O [Compound 31, (2S)-5-carbamimidamido-2-[({1-[(4′-fluorobiphenyl-2-yl)methyl]-2-oxo-1,2-dihydropyridin-3-yl}carbonyl)amino]pentanoic acid•TFA] |
| 50 to 500 | N=C(N)NCCC[C@H](NC(=O)c1cccn(-c2ccc3ccccc3c2)c1=O)C(=O)O [Compound 32, (2S)-5-carbamimidamido-2-({[1-(2-naphthyl)-2-oxo-1,2-dihydropyridin-3-yl]carbonyl}amino)pentanoic acid•TFA] |
| 500 to 20000 | N=C(N)NCCC[C@H](NC(=O)c1cccn(-c2ccccc2)c1=O)C(=O)O [Compound 33, (2S)-5-carbamimidamido-2-{[(2-oxo-1-phenyl-1,2-dihydropyridin-3-yl)carbonyl]amino}pentanoic acid•TFA] |
| 500 to 20000 | N=C(N)NCCC[C@H](NC(=O)c1cccn(-c2ccc(-c3ccccc3)cc2)c1=O)C(=O)O [Compound 34, (2S)-2-{[(1-biphenyl-4-yl-2-oxo-1,2-dihydropyridin-3-yl)carbonyl]amino}-5-carbamimidamidopentanoic acid•TFA] |
| 50 to 500 | Cc1ccc(C(=O)N[C@@H](CCCNC(=N)N)C(=O)O)c(=O)n1Cc1ccccc1 [Compound 35, (2S)-2-{[(1-benzyl-6-methyl-2-oxo-1,2-dihydropyridin-3-yl)carbonyl]amino}-5-carbamimidamidopentanoic acid•TFA] |
| 500 to 20000 | N=C(N)NCCC[C@H](NC(=O)c1ccc(-c2ccccc2)n(Cc2ccccc2)c1=O)C(=O)O [Compound 36, (2S)-2-{[(1-benzyl-2-oxo-6-phenyl-1,2-dihydropyridin-3-yl)carbonyl]amino}-5-carbamimidamidopentanoic acid•TFA] |
| 50 to 500 | N=C(N)NCCC[C@H](NC(=O)c1cccn(CC(=O)N(c2ccccc2)c2ccccc2)c1=O)C(=O)O [Compound 37, (2S)-5-carbamimidamido-2-[({1-[2-(diphenylamino)-2-oxoethyl]-2-oxo-1,2-dihydropyridin-3-yl}carbonyl)amino]pentanoic acid•TFA] |
| < 50 | N=C(N)NCCC[C@H](NC(=O)c1cccn(Cc2cccc(Cl)c2)c1=O)C(=O)O [Compound 38, (2S)-5-carbamimidamido-2-({[1-(3-chlorobenzyl)-2-oxo-1,2-dihydropyridin-3-yl]carbonyl}amino)pentanoic acid•TFA] |
| < 50 | N=C(N)NCCC[C@H](NC(=O)c1cccn(Cc2cccc(F)c2)c1=O)C(=O)O [Compound 39, (2S)-5-carbamimidamido-2-({[1-(3-fluorobenzyl)-2-oxo-1,2-dihydropyridin-3-yl]carbonyl}amino)pentanoic acid•TFA] |

Same assay, conditions: 0.1 nM [125I]-C3a, 3 hours at room temperature; Table 2

| IC50 [nM] | Structure (SMILES) |
| --- | --- |
| < 50 | N=C(N)NCCC[C@H](NC(=O)c1cccn(C(c2ccccc2)c2ccccc2)c1=O)C(=O)O [Compound 40, (2S)-5-carbamimidamido-2-({[1-(diphenylmethyl)-2-oxo-1,2-dihydropyridin-3-yl]carbonyl}amino)pentanoic acid•TFA] |
| < 50 | N=C(N)NCCC[C@@H](NC(=O)c1cccn(C(c2ccccc2)c2ccccc2)c1=O)C(=O)O [Compound 41, (2R)-5-carbamimidamido-2-({[1-(diphenylmethyl)-2-oxo-1,2-dihydropyridin-3-yl]carbonyl}amino)pentanoic acid•TFA] |
| < 50 | Cc1ccccc1C(c1ccccc1C)n1cccc(C(=O)N[C@@H](CCCNC(=N)N)C(=O)O)c1=O [Compound 42, (2S)-2-[({1-[bis(2-methylphenyl)methyl]-2-oxo-1,2-dihydropyridin-3-yl}carbonyl)amino]-5-carbamimidamidopentanoic acid•TFA] |
| < 50 | Cc1cccc(C(c2cccc(C)c2)n2cccc(C(=O)N[C@@H](CCCNC(=N)N)C(=O)O)c2=O)c1 [Compound 43, (2S)-2-[({1-[bis(3-methylphenyl)methyl]-2-oxo-1,2-dihydropyridin-3-yl}carbonyl)amino]-5-carbamimidamidopentanoic acid] |
| < 50 | N=C(N)NCCC[C@H](NC(=O)c1cccn(C(c2ccc(F)cc2)c2ccc(F)cc2)c1=O)C(=O)O [Compound 44, (2S)-2-[({1-[bis(4-fluorophenyl)methyl]-2-oxo-1,2-dihydropyridin-3-yl}carbonyl)amino]-5-carbamimidamidopentanoic acid•TFA] |
| < 50 | N=C(N)NCCC[C@H](NC(=O)c1cccn(C(c2cccc(F)c2)c2cccc(F)c2)c1=O)C(=O)O [Compound 45, (2S)-2-[({1-[bis(3-fluorophenyl)methyl]-2-oxo-1,2-dihydropyridin-3-yl}carbonyl)amino]-5-carbamimidamidopentanoic acid•TFA] |
| < 50 | N=C(N)NCCC[C@H](NC(=O)c1cccn(C(c2ccccc2F)c2ccccc2F)c1=O)C(=O)O [Compound 46, (2S)-2-[({1-[bis(2-fluorophenyl)methyl]-2-oxo-1,2-dihydropyridin-3-yl}carbonyl)amino]-5-carbamimidamidopentanoic acid•TFA] |
| < 50 | Cc1cc(C)cc(C(c2cc(C)cc(C)c2)n2cccc(C(=O)N[C@@H](CCCNC(=N)N)C(=O)O)c2=O)c1 [Compound 47, (2S)-2-[({1-[bis(3,5-dimethylphenyl)methyl]-2-oxo-1,2-dihydropyridin-3-yl}carbonyl)amino]-5-carbamimidamidopentanoic acid•TFA] |
| < 50 | N=C(N)NCCC[C@H](NC(=O)c1cccn(C(c2cccc(C(F)(F)F)c2)c2cccc(C(F)(F)F)c2)c1=O)C(=O)O [Compound 48, (2S)-2-{[(1-{bis[3-(trifluoromethyl)phenyl]methyl}-2-oxo-1,2-dihydropyridin-3-yl)carbonyl]amino}-5-carbamimidamidopentanoic acid•TFA] |
| 50 to 500 | N=C(N)NCCC[C@H](NC(=O)c1cccn(C(c2ccc(C(F)(F)F)cc2)c2ccc(C(F)(F)F)cc2)c1=O)C(=O)O [Compound 49, (2S)-2-{[(1-{bis[4-(trifluoromethyl)phenyl]methyl}-2-oxo-1,2-dihydropyridin-3-yl)carbonyl]amino}-5-carbamimidamidopentanoic acid•TFA] |
| < 50 | CC(c1ccccc1)n1cccc(C(=O)N[C@@H](CCCNC(=N)N)C(=O)O)c1=O (stereo partly drawn) [Compound 50, (2S)-5-carbamimidamido-2-({[2-oxo-1-(1-phenylethyl)-1,2-dihydropyridin-3-yl]carbonyl}amino)pentanoic acid•TFA] |

Same assay, conditions: 0.1 nM [125I]-C3a, 3 hours at room temperature; Table 3

| IC50 [nM] | Structure (SMILES) |
| --- | --- |
| 50 to 500 | N=C(N)NCCC[C@H](NC(=O)c1ccc(Cc2ccccc2)cc1)C(=O)O [Compound 51, (2S)-2-[(4-benzylbenzoyl)amino]-5-carbamimidamidopentanoic acid•TFA] |

— patent publication US20080188528A1, “Modulators of C3a receptor and methods of use thereof” (priority 2006, published 2008)
